Several values for one entry are separate records, joined by “and”; a condition that tells them apart may be missing. Equal entries are not always repeated.
How the values were obtained:
Type in all cases: cell-based
[1] = system: Candida albicans (C. albicans, KCTC 7965); assay: Disc diffusion method, clear zone, C. albicans; settings: Table 19 Antibiotic: ketoconazole (200 μg/mL)
Protocol: (§1) As the strains used for antibacterial activity experiments, Gram-positive bacteria Staphylococcus aureus (S. aureus, KCTC 1916), Gram-negative Escherichia coli (E. coli, KCTC 2571), Pseudomonas aeruginosa (P. aeruginosa, KCTC 2513), Candida albicans (C. albicans, KCTC 7965), and Aspergillus niger (A. niger, KCTC 6196), which were purchased from the Korean collection for Type Cultures (KCTC), were stored and used (Table 5). The inhibitory zones of the extracts were measured by a test method of antibacterial activity to determine the presence or absence of antibacterial activity and to compare the degree of effectiveness of the extracts against the proliferation of bacteria. The antibacterial activity was measured by the disc diffusion method using a paper disc (size: 8 mm, Advantec, Toyo Roshi Kaisha, Ltd., Tokyo, Japan). The strains were each inoculated in an amount of one platinum loop, diluted in 4 mL of sterile water, mixed with a sterilized medium, and the mixture was poured into a prepared plate to be hardened. A 3% extract each was filtered (pore size: 0.4 μm, Advantec MFS, Inc., Tokyo, Japan), and 40 μL was taken and allowed to be absorbed onto a paper disc. After culturing for 24 hours at an appropriate temperature for each strain, the size of the transparent ring formed around the paper disc was measured. [table]

[2] = system: Aspergillus niger (A. niger, KCTC 6196); assay: Disc diffusion method, clear zone, A. niger; settings: KCTC6196, Table 19 Antibiotic: ketoconazole (200 μg/mL), read-out: Clear zone (ø, mm) A. niger
Protocol: as §1

[3] = system: Escherichia coli (E. coli, KCTC 2571); assay: Disc diffusion method, clear zone, E. coli
Protocol: as §1

[4] = system: Staphylococcus aureus (S. aureus, KCTC 1916); assay: Disc diffusion method, clear zone, S. aureus
Protocol: as §1

[5] = system: Pseudomonas aeruginosa (P. aeruginosa, KCTC 2513); assay: Disc diffusion method, clear zone, P. aeruginosa; settings: KCTC2513, Control Group Antibiotic: tetracycline (50 μg/mL), read-out: Clear Zone (ø, mm) P. aeruginosa
Protocol: as §1

SMILES | Clear zone (ø, mm) C. albicans [1] | zone of inhibition at 200 µg/mL [2] [mm] | Clear Zone (ø, mm) E. coli ([3]; Control Group Antibiotic: tetracycline (50 μg/mL)) | zone of inhibition at 50 µg/mL ([3]; Escherichia coli, KCTC2571, Control Group Antibiotic: tetracycline (50 μg/mL), read-out: Clear Zone (ø, mm) E. coli) [mm] | zone of inhibition at 100 µg/mL ([3]; Escherichia coli, KCTC2571, Table 19 Antibiotic: tetracycline (100 μg/mL), read-out: Clear zone (ø, mm) E. coli) [mm] | zone of inhibition at 50 µg/mL ([4]; KCTC1916, Control Group Antibiotic: tetracycline (50 μg/mL), read-out: Clear Zone (ø, mm) S. aureus) [mm] | zone of inhibition at 100 µg/mL ([4]; KCTC1916, Table 19 Antibiotic: tetracycline (100 μg/mL), read-out: Clear zone (ø, mm) S. aureus) [mm] | zone of inhibition at 50 µg/mL [5] [mm]
CC(=O)N1CCN(c2ccc(OCC3COC(Cn4ccnc4)(c4ccc(Cl)cc4Cl)O3)cc2)CC1 (centres unmarked) [ketoconazole] | no antibacterial activity | 13.2 |  |  |  |  |  | 
CN(C)[C@@H]1C(O)=C(C(N)=O)C(=O)[C@@]2(O)C(O)=C3C(=O)c4c(O)cccc4[C@@](C)(O)[C@H]3C[C@@H]12 [tetracycline] |  |  | 19.6 mm and 18.2 mm and 18.5 mm and 20.7 mm and 15.7 mm and 17.8 mm and 14.2 mm | 25.6 | 14.2 | 22.8 | 18.2 | 9

From patent publication US20240293305A1, “COMPOSITION WITH ANTIMICROBIAL OR ANTIFUNGAL ACTIVITY COMPRISING FERMENTED SCUTELLARIA BAICALENSIS EXTRACT, FERMENTED SALVIA MILTIORRHIZA EXTRACT AND FERMENTED DRYPTERIS CCRASSIRHIZOMA EXTRACT” (Sooy-K Co., LTD., priority 2023, published 2024)
